Measurements as given in publication PMC4560162, “Discovery of small molecule inhibitors of xyloglucan endotransglucosylase (XET) activity by high-throughput screening” (Phytochemistry, 2015).
Like-named read-outs stand apart in the source and are kept apart here.

What was measured:
[1] = tested on: Petroselinum xyloglucan endotransglucosylase (XET) activity; assay: Fluorescent dot-blot XET screen (cellulose-bound xyloglucan + XGO–SR on paper, in the dark); assay type: biochemical, parsley
Description: For inhibitor screening, 53 new 96-well plates were set up with 50 μl of parsley enzyme extract per well, and 1 μl of DMSO-solubilised xenobiotic was added to each well, giving concentrations of 0.4 mg/ml (EDI collection, with exceptions noted in Table S2) or 50 μM (LATCA collection) and 2% v/v DMSO.
XET test-paper was prepared as before ([Fry, 1997]) and 112 × 75-mm sheets were attached to cellulose acetate overhead-projector sheets with ‘Spraymount’ adhesive. Each sheet was placed on a pre-cooled glass plate in a cold room at 4 °C.
For inhibitor screening (Fig. 2), 4 μl of a parsley enzyme/xenobiotic mixture was applied to each position on a sheet. Incubation at 20 °C for 2 h, washing, drying and photography were conducted essentially as above.

[2] = tested on: parsley XET activity; assay: Radiochemical XET assay (soluble xyloglucan + [3H]XXXGol); assay type: biochemical; conditions: for inhibition of XET activity: additional LATCA compounds re-tested radiochemically at 200 μM; for effect on XET activity in radiochemical assays (as summarised in the discussion): free solution; for effect on XET activity, radiochemical re-screen of 206 compounds (mostly LATCA): LATCA approx. 25 μM, EDI approx. 200 μg/ml, listed in order of decreasing effectiveness; for effect on XET activity, first radiochemical re-screen of EDI hits: most xenobiotics at 200 μg/ml (≈200–800 μM)
Description: The parsley enzyme concentration was held constant, and the xenobiotics were tested at 200, 160, 120, 80, 40, 20, 10 and 0 μg/ml (concentrations in the final reaction mixture). Other details were as above.
The riboflavin-free controls received the same DMSO concentration.

[3] = EDI 0.4 mg/ml, LATCA 50 μM, 2 h, dark, cellulose-bound xyloglucan
[4] = soluble xyloglucan, laboratory light

Q: `COc1cc(O)c2c(c1N)C(=O)c1ccccc1C2=O` [1-amino-4-hydroxy-2-methoxyanthracene-9,10-dione] was tested. Which “effect on XET activity in dot-blot (inhibition / promotion)” value (“effect … (inhibition / promotion)” for short) [1, 3] did it give?
A: The value was “apparent promoters”.

Q: What about the “inhibition of XET activity” value [2] of the same molecule?
A: Its value is 29%.

Q: And the “effect on XET activity in radiochemical assays (as summarised in the discussion)” value (from here on “effect … (as summarised in the discussion)”) [2, 4]?
A: The value was “moderately inhibitory”.

Q: Which results are given for `O=C(O)c1cc[c]([Hg][Cl])cc1` [4-chloromercuribenzoic acid]?
A: effect on XET activity in dot-blot (inhibition / promotion) [1, 3]: strong inhibitor; effect on XET activity, radiochemical re-screen of 206 compounds (mostly LATCA) [2]: inhibition; XET activity inhibited ([2]; by ∼50 μM, little further inhibition up to ∼400 μM): 50–60%

Q: How did the “effect on XET activity, radiochemical re-screen of 206 compounds (mostly LATCA)” value (shortened to “effect on XET activity … (mostly LATCA)”) [2] turn out when `Cc1ccc(SCc2ccc(C(=O)NCc3ccccn3)cc2)cc1` [4-{[(4-methylphenyl)thio]methyl}-N-(2-pyridinylmethyl)-benzamide] was run?
A: The value was “inhibition”.

Q: Which “effect on XET activity … (mostly LATCA)” value [2] does the source give for `O=C1c2cccc3c(Br)ccc(c23)C(=O)N1O` [6-bromo-2-hydroxy-1H-benzo[de]isoquinoline-1,3(2H)-dione] here?
A: Its value is “inhibition”.

Q: How did the “inhibition of XET activity” value [2] turn out when `Cc1cccc(OCC(=O)N/N=C/c2ccc(Br)o2)c1` [N′-(1E)-(5-bromofuran-2-yl)methylidene-2-(3-methylphenoxy)acetohydrazide] was run?
A: Its value is 24%.

Q: `Cc1cc2nc3cc(C)c(N)cc3[n+](-c3ccccc3)c2cc1N` [Safranine O] was tested. Which “effect … (inhibition / promotion)” value [1, 3] did it give?
A: Its value is “stimulatory”.

Q: Which “effect … (as summarised in the discussion)” value [2, 4] does the source give for `Cc1cc(C(=C2C=CC(=Nc3ccc(S(=O)(=O)O)cc3)C=C2)c2ccc(Nc3ccc(S(=O)(=O)O)cc3)cc2)cc(S(=O)(=O)O)c1N` [aniline blue] here?
A: The value was “inhibiting XET activity”.

Q: With `O=c1cc(-c2ccc(O)cc2)oc2cc(O)cc(O)c12` [apigenin] as the molecule, how does the “effect … (inhibition / promotion)” value [1, 3] read?
A: The value was “promoted”.

Q: What about the “coagulation ('type c' effect) in dot-blot” value ([1]; EDI collection, 0.4 mg/ml in enzyme mixture) of the same molecule?
A: Its value is “coagulation”.

Q: What about the “effect … (as summarised in the discussion)” value [2, 4] of the same molecule?
A: Its value is “little effect”.

Q: Which “effect on XET activity … (mostly LATCA)” value [2] does the source give for `CCOc1ccc(Nc2ccc(C(=C3C=CC(=[N+](CC)Cc4cccc(S(=O)(=O)[O-])c4)C=C3)c3ccc(N(CC)Cc4cccc(S(=O)(=O)O)c4)cc3)cc2)cc1` [brilliant blue R] here?
A: Its value is “inhibition”.

Q: `Cc1cc(C2(c3cc(C)c(O)c(Br)c3)OS(=O)(=O)c3ccccc32)cc(Br)c1O` [bromocresol purple] was tested. Which “effect on XET activity … (mostly LATCA)” value [2] did it give?
A: Its value is “inhibition”.

Q: Which “inhibition of XET activity” value [2] does the source give for `CC(C)C(C)C(O)C(O)C(C)C1CCC2C3COC(=O)C4CC(O)C(O)CC4(C)C3CCC12C` (stereo not shown) [epibrassinolide] here?
A: Its value is 22%.

Q: How did the “effect on XET activity, first radiochemical re-screen of EDI hits” value [2] turn out when `O=C(O[C@@H]1Cc2c(O)cc(O)cc2O[C@@H]1c1ccc(O)c(O)c1)c1cc(O)c(O)c(O)c1` [epicatechin gallate] was run?
A: Its value is “inhibitory”.

Q: And the IC50 ([2]; read-out: IC50 (concentration required for 50% inhibition of XET activity), radiochemical assay, soluble xyloglucan, laboratory light, 2 h, 20 °C)?
A: Its IC50 is ~400 µM.

Q: How did the “effect … (inhibition / promotion)” value [1, 3] turn out when `C=C[C@@]1(C)CC(=O)[C@]2(O)[C@@]3(C)[C@@H](O)CCC(C)(C)[C@@H]3[C@H](O)[C@H](OC(C)=O)[C@@]2(C)O1` [forskolin] was run?
A: The value was “stimulatory”.

Q: For `COc1ccc([C@@H]2CC(=O)c3c(O)cc(O)cc3O2)cc1O` [hesperetin], which “effect … (inhibition / promotion)” value [1, 3] is on record?
A: Its value is “slightly enhanced”.

Q: With `OCc1c[nH]c2ccccc12` [indole 3-carbinol] as the molecule, how does the “effect … (inhibition / promotion)” value [1, 3] read?
A: The value was “stimulatory”.

Q: For `C[C@@H]1C/C=C/C=C/C=C/C=C/[C@H](O[C@@H]2O[C@H](C)[C@@H](O)[C@H](N)[C@@H]2O)C[C@@H]2O[C@](O)(C[C@@H](O)C[C@H]3O[C@@H]3/C=C/C(=O)O1)C[C@H](O)[C@H]2C(=O)O` [natamycin], which “effect … (inhibition / promotion)” value [1, 3] is on record?
A: The value was “stimulatory”.

Q: For `O=C(CCc1ccc(O)cc1)c1c(O)cc(O)cc1O[C@@H]1O[C@H](CO)[C@@H](O)[C@H](O)[C@H]1O` [phloridzin], which “effect … (inhibition / promotion)” value [1, 3] is on record?
A: The value was “slightly enhanced”.

Q: `O=C(O)c1ccccc1C(=O)O` [phthalic acid] was tested. Which “effect … (inhibition / promotion)” value [1, 3] did it give?
A: Its value is “promotion”.

Q: Which “effect … (inhibition / promotion)” value [1] does the source give for `O=[N+]([O-])[O-].[Ag+]` [silver nitrate] here?
A: Its value is “inhibitors”.

Q: Which “effect … (inhibition / promotion)” value [1, 3] does the source give for `O=C(O)[C@H](O)[C@@H](O)[C@H](O)CO` [xylonic acid] here?
A: The value was “promotion”.

Q: For tannic acid, which “effect on XET activity, first radiochemical re-screen of EDI hits” value [2] is on record?
A: Its value is “inhibitory”.
